The text below walks through data of publication PMC11265914, “Unravelling nicotinic receptor and ligand features underlying neonicotinoid knockdown actions on the malaria vector mosquito Anopheles gambiae” (Open Biology, 2024).

This assay addresses T1, Ls-AChBP (Lymnaea stagnalis, UniProt P58154, Q74R).
T1 construct: over-expressed in Pichia pastoris, deglycosylated, purified; homo-pentamer
Put plainly: X-ray crystal structure of the complex. To be noted: cocrystallized with 1 mM dinotefuran, PEG4000, 0.2 M sodium citrate pH 5.4, 20 °C; all five orthosteric sites. It is filed as binding.

For the molecule `CNC(=N[N+](=O)[O-])NC[C@@H]1CCOC1` [dinotefuran], the “X-ray crystal structure of the complex” value is given as “Dinotefuran bound to all five orthosteric sites of the protein”.
